In US9518052B2, “Pyrazolopyridines and pyrazolopyrimidines” (Pfizer Inc., priority 2014, dated 2016):
Counter-ions that a name gives are not always drawn.

How the values were obtained:
Type in all cases: biochemical
Conditions in all cases: Caliper assay at 1 mM ATP
JAK1 = JAK1 (Homo sapiens (Human), UniProt P23458); assay: JAK Caliper Enzyme Assay at 1 mM ATP (JAK1)
JAK3 = JAK3 (Homo sapiens (Human), UniProt P52333); assay: JAK Caliper Enzyme Assay at 1 mM ATP (JAK3)
JAK2 = JAK2 (Homo sapiens (Human), UniProt O60674); assay: JAK Caliper Enzyme Assay at 1 mM ATP (JAK2)
TYK2 = TYK2 (Homo sapiens (Human), UniProt P29597); assay: JAK Caliper Enzyme Assay at 1 mM ATP (TYK2)
TYK2, sequence (P29597 whole entry, species assumed): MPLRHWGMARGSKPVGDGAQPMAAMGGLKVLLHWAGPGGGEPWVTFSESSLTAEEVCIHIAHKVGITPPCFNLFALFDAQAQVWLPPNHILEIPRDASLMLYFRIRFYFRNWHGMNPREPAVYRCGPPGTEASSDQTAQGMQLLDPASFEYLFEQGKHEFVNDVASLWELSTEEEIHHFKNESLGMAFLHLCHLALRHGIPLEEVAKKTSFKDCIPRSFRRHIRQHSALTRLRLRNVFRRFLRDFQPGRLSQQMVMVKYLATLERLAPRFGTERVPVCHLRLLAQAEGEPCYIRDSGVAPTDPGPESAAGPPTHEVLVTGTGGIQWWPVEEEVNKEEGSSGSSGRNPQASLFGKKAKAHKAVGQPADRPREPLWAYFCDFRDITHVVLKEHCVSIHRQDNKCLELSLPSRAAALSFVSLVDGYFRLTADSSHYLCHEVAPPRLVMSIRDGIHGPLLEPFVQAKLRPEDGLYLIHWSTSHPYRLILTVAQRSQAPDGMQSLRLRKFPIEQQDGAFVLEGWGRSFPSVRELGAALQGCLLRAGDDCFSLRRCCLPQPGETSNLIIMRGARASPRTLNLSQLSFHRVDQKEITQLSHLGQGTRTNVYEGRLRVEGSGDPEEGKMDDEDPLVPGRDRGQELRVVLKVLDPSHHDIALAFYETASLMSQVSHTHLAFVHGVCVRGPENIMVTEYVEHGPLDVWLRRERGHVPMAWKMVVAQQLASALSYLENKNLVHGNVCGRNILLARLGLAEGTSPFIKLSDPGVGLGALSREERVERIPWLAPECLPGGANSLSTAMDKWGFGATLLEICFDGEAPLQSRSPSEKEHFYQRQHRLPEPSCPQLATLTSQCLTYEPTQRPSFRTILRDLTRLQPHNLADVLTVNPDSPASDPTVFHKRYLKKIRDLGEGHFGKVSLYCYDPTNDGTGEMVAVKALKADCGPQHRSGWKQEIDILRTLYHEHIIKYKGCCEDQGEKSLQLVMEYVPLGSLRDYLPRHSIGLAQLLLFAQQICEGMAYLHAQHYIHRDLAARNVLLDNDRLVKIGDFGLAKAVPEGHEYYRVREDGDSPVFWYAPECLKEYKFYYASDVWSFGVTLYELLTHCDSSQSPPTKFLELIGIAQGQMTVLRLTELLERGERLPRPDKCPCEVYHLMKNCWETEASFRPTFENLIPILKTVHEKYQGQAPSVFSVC

JAK2, sequence (O60674 whole entry, species assumed): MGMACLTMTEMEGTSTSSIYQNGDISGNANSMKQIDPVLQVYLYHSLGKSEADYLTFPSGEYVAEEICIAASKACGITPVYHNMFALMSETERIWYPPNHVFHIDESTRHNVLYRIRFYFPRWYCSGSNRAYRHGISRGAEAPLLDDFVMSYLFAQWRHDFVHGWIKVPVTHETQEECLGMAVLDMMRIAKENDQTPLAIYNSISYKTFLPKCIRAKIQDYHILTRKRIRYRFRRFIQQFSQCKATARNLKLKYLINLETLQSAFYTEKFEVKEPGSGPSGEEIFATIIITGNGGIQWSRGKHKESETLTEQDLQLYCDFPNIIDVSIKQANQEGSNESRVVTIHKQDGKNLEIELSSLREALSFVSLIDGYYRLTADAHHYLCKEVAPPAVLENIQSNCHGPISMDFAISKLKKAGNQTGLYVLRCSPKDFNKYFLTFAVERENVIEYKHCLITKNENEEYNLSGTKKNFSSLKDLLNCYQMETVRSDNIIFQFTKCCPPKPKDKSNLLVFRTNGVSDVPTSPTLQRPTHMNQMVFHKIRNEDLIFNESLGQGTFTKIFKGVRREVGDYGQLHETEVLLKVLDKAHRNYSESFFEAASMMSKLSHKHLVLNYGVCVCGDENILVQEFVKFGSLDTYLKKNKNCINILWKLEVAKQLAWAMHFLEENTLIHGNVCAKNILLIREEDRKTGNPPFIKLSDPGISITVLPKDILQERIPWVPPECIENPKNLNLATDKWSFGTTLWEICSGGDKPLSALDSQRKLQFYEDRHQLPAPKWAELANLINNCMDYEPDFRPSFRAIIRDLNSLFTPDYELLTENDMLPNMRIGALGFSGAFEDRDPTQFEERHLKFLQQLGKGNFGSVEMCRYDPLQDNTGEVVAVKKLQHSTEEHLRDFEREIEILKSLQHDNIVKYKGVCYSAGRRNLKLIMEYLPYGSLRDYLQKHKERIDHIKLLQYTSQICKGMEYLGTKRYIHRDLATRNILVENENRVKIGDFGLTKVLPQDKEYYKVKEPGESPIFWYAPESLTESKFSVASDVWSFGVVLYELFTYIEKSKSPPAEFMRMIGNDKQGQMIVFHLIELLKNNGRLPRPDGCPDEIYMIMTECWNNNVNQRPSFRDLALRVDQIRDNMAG
JAK1, sequence (P23458 whole entry, species assumed): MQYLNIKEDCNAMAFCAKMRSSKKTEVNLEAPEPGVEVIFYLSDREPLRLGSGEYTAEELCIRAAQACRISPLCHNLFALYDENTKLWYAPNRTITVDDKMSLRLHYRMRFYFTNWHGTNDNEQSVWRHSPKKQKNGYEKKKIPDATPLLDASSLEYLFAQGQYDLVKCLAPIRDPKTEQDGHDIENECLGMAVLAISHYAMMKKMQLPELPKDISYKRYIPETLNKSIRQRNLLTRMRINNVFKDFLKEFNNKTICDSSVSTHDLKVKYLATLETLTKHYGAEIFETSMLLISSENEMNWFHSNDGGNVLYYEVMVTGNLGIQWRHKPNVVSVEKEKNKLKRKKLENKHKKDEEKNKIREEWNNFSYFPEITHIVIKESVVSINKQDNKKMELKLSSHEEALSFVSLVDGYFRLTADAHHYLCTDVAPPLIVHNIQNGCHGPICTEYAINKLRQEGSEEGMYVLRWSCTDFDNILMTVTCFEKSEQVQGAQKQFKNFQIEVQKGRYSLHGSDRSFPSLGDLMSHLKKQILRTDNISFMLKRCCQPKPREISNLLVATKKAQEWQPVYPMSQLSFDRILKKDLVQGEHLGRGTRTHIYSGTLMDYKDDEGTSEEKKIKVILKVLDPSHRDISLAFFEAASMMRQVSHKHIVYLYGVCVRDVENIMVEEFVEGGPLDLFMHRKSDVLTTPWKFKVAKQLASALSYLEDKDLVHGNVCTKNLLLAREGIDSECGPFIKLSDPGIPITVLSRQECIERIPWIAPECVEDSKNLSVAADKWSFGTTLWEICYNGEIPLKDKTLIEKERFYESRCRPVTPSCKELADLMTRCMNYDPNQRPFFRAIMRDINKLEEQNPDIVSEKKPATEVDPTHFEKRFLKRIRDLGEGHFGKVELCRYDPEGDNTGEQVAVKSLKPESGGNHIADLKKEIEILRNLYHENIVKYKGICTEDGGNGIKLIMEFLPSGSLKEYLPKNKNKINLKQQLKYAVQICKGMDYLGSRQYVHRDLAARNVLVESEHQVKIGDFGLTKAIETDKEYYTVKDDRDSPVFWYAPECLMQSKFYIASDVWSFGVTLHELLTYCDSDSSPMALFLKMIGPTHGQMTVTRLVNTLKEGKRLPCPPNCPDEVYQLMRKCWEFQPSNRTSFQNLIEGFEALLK
JAK3, sequence (P52333 whole entry, species assumed): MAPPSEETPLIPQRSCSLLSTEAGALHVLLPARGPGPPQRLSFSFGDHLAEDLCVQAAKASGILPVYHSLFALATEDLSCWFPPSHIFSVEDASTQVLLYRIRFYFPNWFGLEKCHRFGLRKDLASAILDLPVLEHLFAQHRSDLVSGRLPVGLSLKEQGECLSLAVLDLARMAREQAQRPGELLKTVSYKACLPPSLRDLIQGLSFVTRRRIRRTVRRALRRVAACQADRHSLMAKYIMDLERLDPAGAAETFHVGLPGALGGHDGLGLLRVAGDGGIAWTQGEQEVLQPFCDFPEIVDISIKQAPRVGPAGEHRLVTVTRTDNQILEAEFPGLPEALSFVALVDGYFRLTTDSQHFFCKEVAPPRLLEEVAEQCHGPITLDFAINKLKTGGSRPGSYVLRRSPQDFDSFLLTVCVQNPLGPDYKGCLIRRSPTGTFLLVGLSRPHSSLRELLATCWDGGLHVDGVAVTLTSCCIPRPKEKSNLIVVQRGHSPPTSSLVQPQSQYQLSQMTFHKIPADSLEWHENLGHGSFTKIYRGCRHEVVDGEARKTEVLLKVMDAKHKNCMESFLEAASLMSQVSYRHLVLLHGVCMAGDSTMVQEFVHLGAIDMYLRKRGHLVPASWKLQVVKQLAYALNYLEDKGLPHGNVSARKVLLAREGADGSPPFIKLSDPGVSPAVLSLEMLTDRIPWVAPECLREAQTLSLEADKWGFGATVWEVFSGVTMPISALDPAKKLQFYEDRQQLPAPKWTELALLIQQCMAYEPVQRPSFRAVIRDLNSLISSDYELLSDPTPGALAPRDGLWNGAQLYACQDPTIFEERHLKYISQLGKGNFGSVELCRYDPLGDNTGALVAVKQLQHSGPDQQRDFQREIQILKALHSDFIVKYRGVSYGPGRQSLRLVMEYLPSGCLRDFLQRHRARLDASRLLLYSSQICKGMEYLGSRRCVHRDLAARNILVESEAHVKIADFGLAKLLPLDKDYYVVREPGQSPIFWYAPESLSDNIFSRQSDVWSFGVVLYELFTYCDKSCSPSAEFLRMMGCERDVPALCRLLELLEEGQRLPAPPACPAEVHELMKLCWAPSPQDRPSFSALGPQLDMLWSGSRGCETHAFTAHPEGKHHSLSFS

Row | Structure (SMILES) | IC50 (JAK1) [nM] | IC50 (JAK3) [nM] | IC50 (JAK2) [nM] | IC50 (TYK2) [nM]
1 | CN(c1ncc(F)cc1CNc1nc(-c2cc(F)c(O)cc2CC(F)(F)F)cc2[nH]nc(C(N)=O)c12)S(C)(=O)=O [Example 78, 6-[5-Fluoro-4-hydroxy-2-(2,2,2-trifluoroethyl)phenyl]-4-[({5-fluoro-2-[methyl(methyl-sulfonyl)amino]pyridin-3-yl}methyl)amino]-1H-pyrazolo[4,3-c]pyridine-3-carboxamide] | 5.9 | 89.9 | 39.4 | 930
2 | CCN(c1ccc(C)cc1CNc1nc(-c2cc(F)c(O)cc2CC(F)(F)F)cc2[nH]nc(C(N)=O)c12)S(C)(=O)=O [Example 91, 4-({2-[ethyl(methylsulfonyl)amino]-5-methylbenzyl}amino)-6-[5-fluoro-4-hydroxy-2-(2,2,2-trifluoroethyl)phenyl]-1H-pyrazolo[4,3-c]pyridine-3-carboxamide] | 28.7 | 462 | 128 | 865
3 | CCc1cc(O)c(F)cc1-c1cc2[nH]nc(C(=O)NC)c2c(NCc2cc(F)ccc2N(C)S(C)(=O)=O)n1 [Example 7, 6-(2-ethyl-5-fluoro-4-hydroxyphenyl)-4-({5-fluoro-2-[methyl(methyl-sulfonyl)amino]benzyl}amino)-N-methyl-1H-pyrazolo[4,3-c]pyridine-3-carboxamide] | 1.7 | 49 | 9.2 | 6.5
4 | CNC(=O)c1n[nH]c2cc(-c3cc(F)c(O)cc3CC(F)(F)F)nc(NCc3ncccc3N(C)S(C)(=O)=O)c12 [Example 55, 6-[5-Fluoro-4-hydroxy-2-(2,2,2-trifluoroethyl)phenyl]-N-methyl-4-[({3-[methyl(methylsulfonyl)amino]pyridin-2-yl}methyl)amino]-1H-pyrazolo[4,3-c]pyridine-3-carboxamide] | 2.1 | 54 | 13.7 | 45.9
5 | CN(c1ccc(O)cc1CNc1nc(-c2cc(F)c(O)cc2CC(F)(F)F)cc2[nH]nc(C(N)=O)c12)S(C)(=O)=O [Example 92, 6-[5-Fluoro-4-hydroxy-2-(2,2,2-trifluoroethyl)phenyl]-4-({5-hydroxy-2-[methyl(methylsulfonyl)amino]benzyl}amino)-1H-pyrazolo[4,3-c]pyridine-3-carboxamide] | 2.1 | 45.7 | 13.5 | 14.5
6 | CCN(c1ncc(C)cc1CNc1nc(-c2cc(F)c(O)cc2CC(F)(F)F)cc2[nH]nc(C(N)=O)c12)S(C)(=O)=O [Example 87, 4-[({2-[ethyl(methylsulfonyl)amino]-5-methylpyridin-3-yl}methyl)amino]-6-[5-fluoro-4-hydroxy-2-(2,2,2-trifluoroethyl)phenyl]-1H-pyrazolo[4,3-c]pyridine-3-carboxamide] | 30.6 | 133 | 87.8 | 2490
7 | CN(c1ncccc1CNc1nc(-c2cc(F)c(O)cc2CC(F)(F)F)cc2[nH]nc(C(N)=O)c12)S(C)(=O)=O [Example 62, 6-[5-fluoro-4-hydroxy-2-(2,2,2-trifluoroethyl)phenyl]-4-[({2-[methyl(methyl-sulfonyl)amino]pyridin-3-yl}methyl)amino]-1H-pyrazolo[4,3-c]pyridine-3-carboxamide] | 2.9 | 39.5 | 14.4 | 278
8 | CCc1cc(O)c(F)cc1-c1nc(NCc2ccccc2N(C)S(=O)(=O)c2ccccc2)c2c(C(N)=O)n[nH]c2n1 [Example 95, 6-(2-Ethyl-5-fluoro-4-hydroxyphenyl)-4-((2-(N-methylphenylsulfonamido)benzyl)amino)-1H-pyrazolo[3,4-d]pyrimidine-3-carboxamide] | 6.7 | 82.4 | 27 | 89.3
9 | CCc1cc(O)c(F)cc1-c1cc2[nH]nc(C(=O)NC)c2c(NCc2ccccc2N(C)S(=O)(=O)CC)n1 [Example 3, 6-(2-ethyl-5-fluoro-4-hydroxy-phenyl)-4-({2-[(ethylsulfonyl)-(methyl)amino]benzyl}amino)-N-methyl-1H-pyrazolo[4,3-c]pyridine-3-carboxamide] | 1.9 | 47.5 | 9.6 | 6.8
10 | CCN(c1ccc(F)cc1CNc1nc(-c2cc(F)c(O)cc2CC(F)(F)F)cc2[nH]nc(C(N)=O)c12)S(C)(=O)=O [Example 83, 4-((2-(N-ethylmethylsulfonamido)-5-fluorobenzyl)amino)-6-(5-fluoro-4-hydroxy-2-(2,2,2-trifluoro-ethyl)phenyl)-1H-pyrazolo[4,3-c]pyridine-3-carboxamide] | 12.1 | 201 | 63.3 | 139

Further lines, results first:

Row | IC50 (JAK1) [nM] | IC50 (JAK3) [nM] | IC50 (JAK2) [nM] | IC50 (TYK2) [nM] | Structure (SMILES)
11 | 1 | 16.2 | 4.5 | 15.8 | CCc1cc(O)c(F)cc1-c1cc2[nH]ncc2c(N(C)Cc2ccccc2N(CC)S(C)(=O)=O)n1 [Example 145, N-Ethyl-N-[2-({[6-(2-ethyl-5-fluoro-4-hydroxyphenyl)-1H-pyrazolo[4,3-c]pyridin-4-yl](methyl)amino}methyl)phenyl]methanesulfonamide hydrochloride]
12 | 9.3 | 134 | 50.3 | 180 | CC(CO)CNc1nc(-c2cc(F)c(O)cc2CC(F)(F)F)nc2[nH]nc(-c3nc4c([nH]3)CCN(Cc3ccccc3)C4)c12 (stereo not shown) [Example 173, 4-(3-(5-Benzyl-4,5,6,7-tetrahydro-1H-imidazo[4,5-c]pyridin-2-yl)-4-((3-hydroxy-2-methylpropyl)amino)-1H-pyrazolo[3,4-d]pyrimidin-6-yl)-2-fluoro-5-(2,2,2-trifluoroethyl)phenol]
13 | 1.1 | 18.5 | 4.7 | 49.4 | CCc1cc(O)c(F)cc1-c1cc2[nH]ncc2c(NCc2ccccc2N(CCO)S(C)(=O)=O)n1 [Example 147, N-[2-({[6-(2-Ethyl-5-fluoro-4-hydroxyphenyl)-1H-pyrazolo[4,3-c]pyridin-4-yl]amino}methyl)phenyl]-N-(2-hydroxyethyl)methanesulfonamide]
14 | 3.8 | 23.3 | 10.1 | 163 | CCc1cc(O)ccc1-c1cc2[nH]ncc2c(N2CCc3ccc(S(=O)(=O)NCCN4CCCC4)cc3C2)n1 [Example 116, 2-[6-(2-ethyl-4-hydroxyphenyl)-1H-pyrazolo[4,3-c]pyridin-4-yl]-N-[2-(pyrrolidin-1-yl)ethyl]-1,2,3,4-tetrahydroisoquinoline-7-sulfonamide formate]
15 | < 0.1 | 3.3 | 0.3 | 45.4 | CCCN(c1ccccc1CNc1nc(-c2cc(F)c(O)cc2CC)cc2[nH]ncc12)S(C)(=O)=O [Example 137, N-[2-({[6-(2-Ethyl-5-fluoro-4-hydroxyphenyl)-1H-pyrazolo[4,3-c]pyridin-4-yl]amino}methyl)phenyl]-N-propylmethanesulfonamide]
16 | 4.3 | 16.8 | 10.1 | 229 | CCc1cc(O)ccc1-c1cc2[nH]ncc2c(N2CC(C)(O)C2)n1 [Example 115, 1-[6-(2-ethyl-4-hydroxyphenyl)-1H-pyrazolo[4,3-c]pyridin-4-yl]-3-methylazetidin-3-ol formate]
